SMILES strings stand for the structures.

This series is described as follows: Three-cycle combination toxicity study with gemcitabine and cisplatin, mouse. The format is in vivo. The settings on record: mice; SRA737 with IV gemcitabine and cisplatin, intermittent schedule over 18 days. The text has this:
Clinical combination of SRA737 and gemcitabine in some cases therefore elicited exacerbated hematological and GI toxicities.

On to `N#Cc1cnc(Nc2cc(NCC3CNCCO3)c(C(F)(F)F)cn2)cn1` (stereo not shown) [SRA737, 5-[[4-[[morpholin-2-yl]methylamino]-5-(trifluoromethyl)-2-pyridyl]amino]pyrazine-2-carbonitrile], for which the “findings exacerbated by SRA737 over the cisplatin/gemcitabine control group” value was “reversible marrow toxicity, consequent splenomegaly, and the high-dose intestinal observations”.

For the origin of these results see patent publication US20200397796A1, “METHODS OF TREATMENT OF CANCER COMPRISING CHK1 INHIBITORS” (SIERRA ONCOLOGY, INC., priority 2018, published 2020).
